Data from patent publication US10144730B2, “Inhibitors of c-Jun-N-terminal kinase (JNK)” (Dana-Farber Cancer Institute, Inc., priority 2011, dated 2018).
Entries after “also recorded” stand apart in the source; their conditions may differ. Like-named read-outs stand apart in the source and are kept apart here. Each block holds one compound with its values, some of them ahead of it.

Assays:
[1] = tested on: c-Jun phosphorylation; test: High throughput microscopy of c-Jun phosphorylation in A375 cells; format: cell-based; settings: A375 cells, anisomycin stimulation, read-out: p-c-Jun EC50 (nM) A375
Experimental: (§1) Cells were fixed in 2% paraformaldehyde for 10 min at room temperature and washed with PBS-T (Phosphate Buffered Saline, 0.1% Tween 20). Cells were permeabilized in methanol for 10 min at room temperature, washed with PBS-T, and blocked in Odyssey Blocking Buffer (LI-COR Biosciences) for 1 hour at room temperature. Cells were incubated overnight at 4° C. with antibody specific for Erk1/2(pT202/pY204), Akt(pS473), c-Jun(pS73), pP38(T180/Y182) and pSTAT3(Y705) (Cell Signaling Technology), pRSK1(S380) and pMSK1(S376) (Epitomics), and NF-κB (Santa Cruz Biotechnology) diluted 1:400 in Odyssey Blocking Buffer. […] Cells were washed twice with PBS and imaged in an imageWoRx high-throughput microscope (Applied Precision). Data were plotted using DataPflex.
(§2) In parallel with biochemical evaluation, the ability of the compounds to inhibit JNK activity in cells was investigated using two independent assays formats. This is a critical issue because there are several reported JNK inhibitors with nanomolar biochemical potency that translate into micromolar cellular inhibitors. The most well characterized direct phosphorylation substrate of JNK is the transcription factor c-Jun.

[2] = target: JNK3 (Homo sapiens, UniProt P53779); test: Biochemical JNK3 kinase inhibition (Z'-lyte format)
Sequence of JNK3 (P53779 whole entry): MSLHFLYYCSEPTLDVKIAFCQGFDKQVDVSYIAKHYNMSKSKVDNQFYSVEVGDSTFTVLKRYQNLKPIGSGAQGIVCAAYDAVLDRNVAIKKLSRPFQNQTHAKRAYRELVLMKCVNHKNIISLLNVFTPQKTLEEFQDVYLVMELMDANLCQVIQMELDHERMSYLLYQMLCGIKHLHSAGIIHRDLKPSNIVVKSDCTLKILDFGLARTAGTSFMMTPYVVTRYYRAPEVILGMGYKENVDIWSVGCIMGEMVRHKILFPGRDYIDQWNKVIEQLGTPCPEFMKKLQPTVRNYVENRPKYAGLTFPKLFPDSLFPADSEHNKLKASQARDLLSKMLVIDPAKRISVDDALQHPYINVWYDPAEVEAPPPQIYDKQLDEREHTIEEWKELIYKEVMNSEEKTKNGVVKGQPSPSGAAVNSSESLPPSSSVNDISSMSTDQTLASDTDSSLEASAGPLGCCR

[3] = tested on: 260 kinases in A375 cells; test: KiNativ cellular kinase selectivity profiling in A375 cells; format: cell-based; settings: 1 μM, 3 hours
Experimental: FIG. 9 illustrates the cellular kinase selectivity as assessed using the KiNativ™ technology.
The kinase selectivity of several key compounds was first evaluated using a chemical proteomic approach named KiNativ which detects 260 kinases in A375 cells (ActivX Biosciences). To probe the intracellular targets of the compounds, A375 cells were incubated with the inhibitors and then looked for protection of labeling by an ATP-biotin probe that non-specifically labels conserved lysines on kinases and other nucleotide-dependent enzymes. This provided an important advantage relative to the in vitro kinase selectivity profiling because in vitro the short incubation times and presence of reactive thiols in the buffers can potentially cause false negatives for acrylamide-modified kinase inhibitors. […] Since cysteine-directed covalent kinase inhibitors will sometimes cross-react with kinases that contain an equivalently placed cysteine, a sequence alignment was performed to identify all kinases which have a cysteine near JNK1 Cys116 (FIG. 10). […] The dramatic selectivity improvement that results from introduction of this flag-methyl group has been previously reported for imatinib (Zimmermann et al., 1996).

[4] = tested on: JNK; test: Binding kinetics (pulse-chase) assay, ATP-biotin labeling of JNK in A375 cells; format: cell-based; settings: 1 μM compound
Experimental: A375 cells were incubated with inhibitors for the indicated amount of time after which cell lysates were prepared and labeled with ATP-biotin. Biotinylated proteins were pulled down with streptavidin beads and material bound to the beads was eluted and separate by SDS-PAGE followed by Western blot analysis for JNK.
A375 cells (ATCC® CRL-1619™) were pre-treated with 1 μM compound for the indicated amounts of time. Remove the medium and wash 3 times with PBS. Resuspend the cell pellet with 1 mL Lysis Buffer (1% NP-40, 1% CHAPS, 25 mM Tris, 150 mM NaCl, Phosphatase Inhibitor Cocktail, Roche 04906845001, and Protease Inhibitor Cocktail Roche 11836170001). Rotate end-to-end for 30 min at 4° C. Lysates were cleared by centrifugation at 14000 rpm for 15 min in the Eppendorf. The cleared lysates gel filtered into Kinase Buffer (0.1% NP-40, 20 mM HEPES, 150 mM NaCl, Phosphatase Inhibitor Cocktail, and Protease Inhibitor Cocktail) using Bio-Rad 10DG colums. The total protein concentration of the gel-filtered lysate should be around 5-15 mg/ml. […]
In order to evaluate the kinetics with which JNK-IN-5 could covalently modify JNK in cells, a pulse-chase assay was developed . […] Streptavidin affinity chromatography is then used to isolate all biotinylated proteins and JNK protein is detected following SDS-PAGE and Western blotting (FIG. 8). […]

[5] = tested on: c-Jun phosphorylation; test: LanthaScreen TR-FRET cell assay for c-Jun phosphorylation in HeLa cells; format: cell-based; settings: for EC50: Hela cells, TNF-α stimulation, read-out: p-c-Jun EC50 (nM) Hela
Experimental: Phosphorylation was determined by measuring the time resolved FRET (TR-FRET) between a terbium labeled phospho-c-Jun specific antibody and GFP. The cells were plated in white tissue culture treated 384 well plates at a density of 10,000 cell per well in 32 μL assay medium (Opti-MEM®, supplemented with 0.5% charcoal/dextran-treated FBS, 100 U/ml penicillin and 100 μg/ml streptomycin, 0.1 mM nonessential amino acids, 1 mM sodium pyruvate, 25 mM Hepes, pH 7.3, and lacking phenol red). After overnight incubation, cells were pretreated for 90 minutes with compound (at indicated concentration) diluted in 4 μL assay buffer followed by 30 min of stimulation with 5 ng/ml of TNF-α in 4 μL assay buffer (final assay volume was 40 μl). The medium was then removed by aspiration, and the cells were lysed by adding 20 μl of lysis buffer (20 mM Tris-HCl, pH 7.6, 5 mM EDTA, 1% Nonidet P-40 substitute, 5 mM NaF, 150 mM NaCl, and 1:100 protease and phosphatase inhibitor mix, SIGMA P8340 and P2850, respectively). The lysis buffer included 2 nM of the terbium-labeled anti-c-Jun (pSer73) detection antibodies (Life Technologies). After allowing the assay to equilibrate for 60 minutes at room temperature, TR-FRET emission ratios were determined on a BMG Pherastar fluorescence plate reader (BMG Labtech, Cary, N.C.) using the following parameters: excitation at 340 nm; emission at 520 nm and 490 nm; 100 μs lag time; 200 μs integration time; and emission ratio=Em520/Em490. All data were analyzed and plotted using Graphpad Prism 4.
as §2

[6] = tested on: phosphorylation of RSK; test: High-throughput microscopy, phosphorylation of RSK; format: cell-based; settings: Homo sapiens, A-375, A375 cells, anisomycin stimulation, read-out: Cellular EC50 pRSK
Experimental: (§3) A375 cells were stimulated with anisomycin (FIGS. 14A and 14C to 14F), IGF-1 (FIG. 14B), IL-6 (FIG. 14G), and TNF-α (FIG. 14H) for sixty minutes. The output of multiple signaling pathways was measured using high throughput microscopy at multiple concentrations of four JNK inhibitors and a control compound specific to each pathway DMSO (FIG. 14A), MK2206 (allosteric Akt inhibitor, Haoyuan Chemexpress Co., Limited. Hirai, et al., 2010) (FIG. 14B), PD0325901 (allosteric Mek inhibitor, Haoyuan Chemexpress Co., Limited. Barrett, et al., 2008) (FIGS. 14C and 14D), SB239063 (ATP-competitive p38 inhibitor, Haoyuan Chemexpress Co., Limited. Underwood et al., 2000) (FIGS. 14E and 14F), KIN001-040 (ATP-competitive JAK1,2,3 inhibitor, Haoyuan Chemexpress Co., Limited. Thompson et al., 2002) (FIG. 14G), and KIN001-208 (IKK inhibitor VIII, Haoyuan Chemexpress Co., Limited., Murata, et al., 2004) (FIG. 14H).
(§4) Cells were plated at 7500 cells/well in 96-well microscopy plates (Corning) in recommended media for 24 hours, and then starved in media lacking serum for 16 hours. Cells were pre-treated for 180 minutes with 10-fold stock solutions of JNK inhibitors and for 10 min with control compounds MK2206, PD0325901, SB239063, KIN040, and KIN208 and treated with 10-fold stock solutions of IGF-1, IL-6, TNF-α (all PeproTech), or anisomycin for 60 minutes. Cells were fixed in 2% paraformaldehyde for 10 min at room temperature and washed with PBS-T (Phosphate Buffered Saline, 0.1% Tween 20). Cells were permeabilized in methanol for 10 min at room temperature, washed with PBS-T, and blocked in Odyssey Blocking Buffer (LI-COR Biosciences) for 1 hour at room temperature. Cells were incubated overnight at 4° C. with antibody specific for Erk1/2(pT202/pY204), Akt(pS473), c-Jun(pS73), pP38(T180/Y182) and pSTAT3(Y705) (Cell Signaling Technology), pRSK1(S380) and pMSK1(S376) (Epitomics), and NF-κB (Santa Cruz Biotechnology) diluted 1:400 in Odyssey Blocking Buffer. Cells were washed three times in PBS-T and incubated with rabbit-specific secondary antibody labeled with Alexa Fluor 647 (Invitrogen) diluted 1:2000 in Odyssey Blocking Buffer. Cells were washed once in PBS-T and once in PBS and incubated in 250 ng/ml Hoechst 33342 (Invitrogen) and 1:1000 Whole Cell Stain (blue; Thermo Scientific) solution. Cells were washed twice with PBS and imaged in an imageWoRx high-throughput microscope (Applied Precision). Data were plotted using DataPflex. […]

[7] = target: T1, JNK1 (Homo sapiens, UniProt P45983); test: Biochemical JNK1 kinase inhibition (Z'-lyte format); settings: Table 2
T1 sequence (P45983 whole entry): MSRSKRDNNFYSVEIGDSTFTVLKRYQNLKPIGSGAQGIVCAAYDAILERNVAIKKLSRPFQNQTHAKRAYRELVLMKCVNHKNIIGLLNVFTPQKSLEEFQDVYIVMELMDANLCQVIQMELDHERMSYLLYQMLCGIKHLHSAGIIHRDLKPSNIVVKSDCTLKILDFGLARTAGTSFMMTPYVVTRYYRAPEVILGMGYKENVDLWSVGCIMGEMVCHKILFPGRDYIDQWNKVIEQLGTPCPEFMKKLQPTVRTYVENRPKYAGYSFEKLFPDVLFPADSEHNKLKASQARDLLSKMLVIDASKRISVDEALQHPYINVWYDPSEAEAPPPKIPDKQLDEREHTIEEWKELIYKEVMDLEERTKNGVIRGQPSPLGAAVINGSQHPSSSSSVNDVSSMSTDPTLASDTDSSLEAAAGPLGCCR

[8] = tested on: NF-kB nuclear translocation; test: High-throughput microscopy, NF-kB nuclear translocation; format: cell-based; settings: Homo sapiens, A-375, A375 cells, TNF-α stimulation, read-out: Cellular EC50 NF-kB
Experimental: as §3, §4

[9] = tested on: panel of 442 distinct kinases; test: KINOMEscan kinase-binding panel; settings: concentration of 1.0 μM
[10] = tested on: phosphorylation of p38; test: High-throughput microscopy, phosphorylation of p38; format: cell-based; settings: Homo sapiens, A-375, A375 cells, anisomycin stimulation, read-out: Cellular EC50 pP38
Experimental: as §3, §4

[11] = tested on: phosphorylation of Msk1; test: High-throughput microscopy, phosphorylation of Msk1; format: cell-based; settings: Homo sapiens, A-375, A375 cells, anisomycin stimulation, read-out: Cellular EC50 pMSK1
Experimental: A375 cells were stimulated with anisomycin (FIGS. 14A and 14C to 14F), IGF-1 (FIG. 14B), IL-6 (FIG. 14G), and TNF-α (FIG. 14H) for sixty minutes.
as §1

[12] = target: additional kinase targets; test: Follow-up enzymatic IC50 or Kd on potential additional kinase targets; settings: FIG. 12
Source text: Scores were obtained from the profiling against a […] using Kinome Scan™ technology as illustrated in FIG. 11.
To complement the KiNativ profiling, the in vitro kinase selectivity of several key compounds was comprehensively evaluated by two complementary approaches: a kinase-binding assays against a panel of 442 distinct kinases using the KINOMEscan methodology (DiscoverX) and a standard radioactivity-based enzymatic assays against a panel of 124 kinases (The National Centre for Protein Kinase Profiling in Dundee). […] It was attempted to confirm all these potent binding targets using either an enzymatic kinase assay or through the measurement of a dissociation constant to the kinase in question.

[13] = tested on: phosphorylation of STAT3; test: High-throughput microscopy, phosphorylation of STAT3; format: cell-based; settings: Homo sapiens, A-375, A375 cells, IL-6 stimulation, read-out: Cellular EC50 pSTAT3
Experimental: as §3, §4

[14] = tested on: phosphorylation of Erk; test: High-throughput microscopy, phosphorylation of Erk; format: cell-based; settings: Homo sapiens, A-375, A375 cells, anisomycin stimulation, read-out: Cellular EC50 pErk
Experimental: as §3, §4

[15] = tested on: phosphorylation of Akt; test: High-throughput microscopy, phosphorylation of Akt; format: cell-based; settings: Homo sapiens, A-375, A375 cells, IGF-1 stimulation, read-out: Cellular EC50 pAkt
Experimental: as §3, §4

[16] = target: JNK2 (Homo sapiens, UniProt P45984); settings: Table 2, *Literature values; cited from earlier work
Sequence of JNK2 (P45984 whole entry): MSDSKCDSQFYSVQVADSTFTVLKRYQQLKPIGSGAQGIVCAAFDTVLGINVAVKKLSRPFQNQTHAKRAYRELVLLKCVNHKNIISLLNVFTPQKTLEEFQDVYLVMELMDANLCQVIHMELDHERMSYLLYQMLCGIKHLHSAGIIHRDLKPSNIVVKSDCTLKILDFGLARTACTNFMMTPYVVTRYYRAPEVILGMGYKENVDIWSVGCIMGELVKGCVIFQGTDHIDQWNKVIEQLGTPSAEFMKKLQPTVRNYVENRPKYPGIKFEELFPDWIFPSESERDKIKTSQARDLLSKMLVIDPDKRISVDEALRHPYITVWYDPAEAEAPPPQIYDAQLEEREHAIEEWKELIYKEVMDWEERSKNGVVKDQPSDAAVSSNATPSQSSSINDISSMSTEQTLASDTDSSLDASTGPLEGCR

[17] = target: T1, JNK1; settings: Table 2, *Literature values; cited from earlier work

EC50 ([1]; Homo sapiens, A-375): 1900 nM
IC50 ([2]; Table 2): 148 nM
fold less potent biochemical IC50 ([2]; on JNK1, 2, and 3, relative to JNK-IN-5): ~100 fold
EC50 ([5]; Homo sapiens): 6760 nM
cellular IC50 fold higher than covalent analog JNK-IN-5 ([5]; cellular c-Jun phosphorylation, relative to JNK-IN-5): 50 fold
SMILES: CCC(=O)Nc1cccc(C(=O)Nc2ccc(Nc3nccc(-c4cccnc4)n3)cc2)c1 [JNK-IN-6]
KiNativ result for JNK after live cell treatment [3]: did not inhibit JNK activity
protection of JNK from labeling by ATP-biotin [4]: incapable of protecting JNK from labeling by ATP-biotin; also recorded: no protection of JNK labeling

SMILES: CN(C)C/C=C/C(=O)Nc1cccc(C(=O)Nc2ccc(Nc3nccc(-c4cccnc4)n3)cc2)c1 [JNK-IN-7]
EC50 [6]: > 10000 nM
IC50 [7]: 1.54 nM
EC50 [8]: > 10000 nM
number of kinases with binding inhibition of 95% or more [9]: approximately 14 kinases
EC50 [10]: > 10000 nM
EC50 [11]: > 10000 nM
Kd or IC50 against eight additional kinases [12]: ≤ 100 nM
EC50 [13]: > 10000 nM
EC50 ([5]; Homo sapiens): 130 nM
EC50 [14]: > 10000 nM
EC50 [15]: > 10000 nM

EC50 [1]: 2400 nM
IC50's for c-Jun phosphorylation in both cellular assay formats ([5]; HeLa and A375 formats, tested in parallel): micromolar range
EC50 [5]: 2020 nM
SMILES: N#CC(c1ccnc(NCCc2cccnc2)n1)c1nc2ccccc2s1 (centres unmarked) [AS601245, reference compound]
IC50 [16]: 220 nM
IC50 [17]: 150 nM
